Entries after “also recorded” stand apart in the source; their conditions may differ.

One data set concerns LX-2 cells. Nature of the data set: mRNA expression of liver fibrosis marker genes in TGFβ1-induced LX-2 cells. Type of data set: cell-based. The settings on record: 10 μM, induced by 2 ng·mL^−1 TGFβ1, 24 h. The protocol:
(§1) Cells and liver tissue samples were subjected to RNA extraction and purification, followed by reverse transcription of equal amounts of total RNA into […] using a Transcriptor First Strand cDNA Synthesis Kit (Roche). The relative expression levels of the target gene were determined using TaqMan probe/primers with an ABI Q3 quantitative real-time PCR system, while GAPDH/Gapdh was utilized as an internal control for mRNA expression. The fold change in the expression of the target mRNA was calculated using Equation 2^−ΔΔCt.
(A–E) The LX-2 cells underwent a 24 h treatment of 2 ng·mL^−1 TGFβ1, with or without varying concentrations of candidate compounds, following FBS starvation. […] GAPDH/GAPDH was used as the loading control. The mean ± SD values were obtained from three independent assays. […] ANOVA was followed by Tukey’s test for statistical analysis.

For data set [1], the system named is RXRα, RXRβ, RXRγ, LXRα, LXRβ, PXR, PPARα, PPARβ, PPARγ, and GPBAR. Nature of the data set: NR selectivity one-hybrid assay in HEK-293T cells (panel of metabolic NRs). The following applies: with corresponding agonists. Type of data set: cell-based. The protocol:
To assess the compound’s specificity, the mammalian one-hybrid assay was conducted. In this assay, HEK-293T cells were co-transfected with a fusion plasmid of Gal4 DBD-NR LBD (comprising RXRα, RXRβ, RXRγ, PPARα, PPARβ, PPARγ, LXRα, LXRβ, GPBAR, and PXR) and the UAS-TK-Luc reporter, followed by treatment with various concentrations of the compound. The positive control consisted of the corresponding nuclear receptor agonist, and the concentration used in the experiment was set to the EC50 of the agonist.
Figure 3 Compound 10b selectively antagonized FXR. The impact of compound 10b on various NRs was evaluated using a […] one-hybrid assay in HEK-293T cells. The cells were transiently co-transfected with a fusion plasmid of Gal4 DBD-NR-LBD, which included PPARα, PPARβ, PPARγ, RXRα, RXRβ, RXRγ, LXRα, LXRβ, GPBAR, PXR, and FXR, in combination with the UAS-TK-Luc reporter. […] The values are expressed as the means ± SE of three independent experiments. *: p < 0.05 vs. RA (relative agonist).

On the set-up of data set [2]: method as in PMID 34970143. The settings on record: 120 mg·Kg^−1; cited from earlier work.
In data set [3] the test system is FXR downstream genes. Nature of the data set: mRNA expression of FXR downstream genes in HepG2 cells (qRT-PCR). In kind it is cell-based. The settings on record: 50 μM, 24 h. The protocol: as §1
(A) Relative mRNA level of SHP; (B) Relative mRNA level of BSEP; (C) Relative mRNA level of CYP7A1; (D) Relative mRNA level of SREBP1c; (E) Relative mRNA level of PEPCK; (F) Expression level of G6Pase. HepG2 cells were seeded in a 6-well plate and treated with DMSO and varying concentrations of compound 10b for 24 h with or without 50 μM of 1. The mRNA levels of SHP, BSEP, CYP7A1, SREBP1c, PEPCK, and G6Pase were quantified and normalized to β-actin expression.

For data set [4], the system named is FXR downstream genes. The following applies: previous study; cited from earlier work.
The target of the next data set is T1, FXR (Homo sapiens, UniProt Q96RI1).
T1 construct: a fusion plasmid of Gal4 DBD-NR-LBD, which included PPARα, PPARβ, PPARγ, RXRα, RXRβ, RXRγ, LXRα, LXRβ, GPBAR, PXR, and FXR; expressed in transfected cells; host or cells: HEK-293T
T1 sequence (Q96RI1 262-486 limits assumed): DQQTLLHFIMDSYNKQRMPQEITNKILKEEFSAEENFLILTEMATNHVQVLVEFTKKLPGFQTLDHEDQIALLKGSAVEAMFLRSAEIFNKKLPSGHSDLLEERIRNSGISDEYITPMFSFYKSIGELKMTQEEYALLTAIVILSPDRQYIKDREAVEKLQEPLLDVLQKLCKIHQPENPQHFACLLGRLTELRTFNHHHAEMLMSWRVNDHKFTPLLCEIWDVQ
Briefly: Yeast one-hybrid assay of FXR antagonistic activity in HEK-293T cells. In kind it is cell-based. The following applies: HEK-293T cells; CDCA (50 μM) as agonist; mean ± SE of three independent tests. As to the method:
Cell counting: HEK-293T cells in logarithmic growth phase were digested with 0.25% trypsin, collected, and centrifuged. The trypsin-containing medium was discarded, and 2 mL of fresh phenol red-free DMEM medium containing 5% fetal bovine serum was added. The cells were then mixed with the medium to prepare a cell suspension and counted on a cell counting plate.
Cell plating: A determined number of cells were taken from the cell suspension, diluted with phenol red-free DMEM medium containing 5% fetal bovine serum, and plated at a concentration of 10,000 cells per well (100 µL medium) in a 96-well plate. The plate was then incubated at 37 °C and 5% CO2 for 24 h.
Cell transfection: Fresh phenol red-free DMEM medium was taken in a sterile environment, and the previously extracted pFXR-Binding plasmid and PG4.35[luc2P-9XGA4UAS-Hygro] plasmid were added. The mixture was stirred and allowed to stand at 23 °C for 3 min. Then, a 3% amount of transfection reagent was added to the mixture, and it was allowed to stand at 23 °C for 15 min. The mixture was then added to the 96-well plate at a volume of 10 µL per well and incubated at 37 °C in a 5% CO2 environment for 24 h.
The OA derivatives were prepared as 10 mM DMSO stock solutions and further diluted in a concentration gradient, with 10 µL added to each well. The final concentrations of the derivatives ranged from 10 µM to 0.03 µM, with 7 concentration gradients using […] dilution. The test was set with 3 duplicated wells.
Antagonism activity test: The firefly-Renilla Dual Fluorescence Assay Kit (Promega, #E2940, Madison, WI, USA) was used to measure the antagonism activity of the OA derivatives. Firstly, the firefly fluorescence reagent was added to the 96-well plate at a volume of 70 µL per well and shaken in darkness for 15 min. Then, the fluorescence intensity was measured at a wavelength of 645 ± 30 nm in a microplate reader (BioTek, Winooski, VT, USA). Next, the volume of Renilla reagent was added to the 96-well plate at a volume of 70 µL per well and shaken in darkness for 15 min. The fluorescence intensity was then measured at a wavelength of 525 ± 20 nm.
Data processing: The fluorescence data of firefly were divided by the fluorescence data of Renilla to remove errors, and the antagonism efficiency was calculated using the following formula: antagonism efficiency (%) = [1 − (FCompds. − FDMSO)/(FCDCA − FDMSO)] × 100%. In the formula, F represents fluorescence intensity. The antagonistic efficiency data were obtained as a concentration–effect curve using Graphpad Prism 8.0 software, and the corresponding IC50 value was calculated.

The test system of the next data set is HFD mice. On the set-up: method as in PMID 30635917. The settings on record: 100 mg·Kg^−1; cited from earlier work.

In the case of `CC[C@H]1[C@@H](O)[C@@H]2[C@H](CC[C@]3(C)[C@@H]([C@H](C)CCC(=O)O)CC[C@@H]23)[C@@]2(C)CC[C@@H](O)C[C@@H]12` [OCA, obeticholic acid, reference compound], in the data set with LX-2 cells, the “mRNA expression of CTGF” value is listed as “decreased”. For `C/C=C1\C(=O)C[C@H]2[C@@H]3CCC4=CC(=O)CC[C@]4(C)[C@H]3CC[C@]12C` [guggulsterone, reference compound], the “antagonism of metabolic NRs” value in data set [1] is on record as “Most NRs were antagonized”. For the same molecule, in the data set on LX-2 cells, the “mRNA expression of ACTA2” value is “significantly decreased” and the “mRNA expression of COL1A1” value is given as “significantly decreased”. Regarding `C[C@@H]1CC[C@]2(C(=O)O[C@@H]3O[C@H](CO)[C@@H](O)[C@H](O)[C@H]3O)CC[C@]3(C)C(=CC[C@@H]4[C@@]5(C)CC[C@H](O)[C@](C)(C(=O)O)[C@@H]5CC[C@]43C)[C@@H]2[C@]1(C)O` [IsA, Ilexsaponin A1], in data set [2], the “liver TC levels” value was “reducing”, the “liver TG” value was “reducing” and the “serum TG” value is “reducing”. Turning to `C[C@H](CCC(=O)O)[C@H]1CC[C@H]2[C@@H]3[C@H](O)C[C@@H]4C[C@H](O)CC[C@]4(C)[C@H]3CC[C@]12C` [CDCA, Chenodeoxycholic acid, reference compound], the “expression of CYP7A1 (mRNA)” value with FXR downstream genes [3] is listed as “decrease”. In the case of `CC(=O)CCCC(=O)OC1CC2C3(C)CCC(O)C(C)(C)C3CCC2(C)C2(C)CCC3(C(=O)O)CCC(C)(C)CC3C12` (stereo not drawn) [Compound 7], in the data set on FXR downstream genes [4], the CYP7A1 gene expression result is on record as “downregulated; also recorded: significantly reduces”, the G6Pase expression result is on record as “significantly reduces” and the PEPCK expression entry is “significantly reduces”.

On to `CC1(C)CC[C@]2(C(=O)O)CC[C@]3(C)[C@H]([C@H](OC(=O)[C@@H](CCC(=O)OC(C)(C)C)NC(=O)OC(C)(C)C)CC4[C@@]5(C)CC[C@H](O)C(C)(C)C5CC[C@]43C)[C@@H]2C1` (stereo partly drawn) [Compound 10d, 3-hydroxy-12β-(2′-((tert-butoxycarbonyl)amino)-5′-(tert-butoxy)-D-glutamate)oxy-13H-olean-28-oic acid], for which, at FXR, the IC50 (usually the concentration at which inhibition is half-maximal) came out at 3.67 ± 0.39 µM. On to `COC(=O)NC(CCC(=O)OC1CC2C3(C)CCC(O)C(C)(C)C3CCC2(C)C2(C)CCC3(C(=O)O)CCC(C)(C)CC3C12)C(=O)OC(C)(C)C` [Compound 19a, 3β-hydroxy-12β-(4′-((methoxycarbonyl)amide)-5′-(tert-butoxy)-L-glutamate)oxy-13H-olean-28-oic acid], for which the concentration for half-maximal inhibition (IC50) on FXR amounted to 0.55 ± 0.22 µM. Take `C=C(C)[C@@H]1CC[C@]2(C(=O)O)CC[C@]3(C)[C@H](CC[C@@H]4[C@@]5(C)CC[C@H](O)C(C)(C)[C@@H]5CC[C@]43C)[C@@H]12` [BA, Betulinic acid]: in the data set with HFD mice, the “liver TC levels” value is reported as “reduce” and the “liver TG levels” value was “reduce”.

Source of the values: publication PMC10221314 (Pharmaceuticals, 2023).
